Like-named read-outs stand apart in the source and are kept apart here.
How the values were obtained:
[1] = system: primary human hepatocytes (PHH) 3D spheroids
clinical DILI in man = details: cited from earlier work; for Clinical DILI classification (Figure 5): structural analogue pairs, 2008 and others
[2] = therapeutic total cmax; ref PMID; cited from earlier work
[3] = ref DrugBank and Prescribers' Digital Reference database; cited from earlier work
PHH 2D sandwich cultures = details: cited from earlier work
[4] = system: PHH spheroids (hanging-drop); details: cited from earlier work; for hepatotoxicity classification in hanging-drop PHH spheroids: 100× cmax, 2 weeks, ref Proctor et al., 2017
[5] = DILI classification score, ref Suzuki et al. (2010)
[6] = FDA drug labeling DILI concern, ref Chen et al., 2011
[7] = FDA drug labeling DILI score, ref Chen et al., 2011
[8] = clinical DILI classification in man (POS/NEG)
[9] = clinical DILI classification used in this study, Supplementary Table 2, ref Chen et al., 2011, Guo et al., 2005, O'Brien et al., 2006, Sakatis et al., 2012, Suzuki et al., 2010, Xu et al., 2008
[10] = clinical DILI classification, Supplementary Table 1, ref Chen et al., 2011, Guo et al., 2005, O'Brien et al., 2006, Sakatis et al., 2012, Suzuki et al., 2010, Xu et al., 2008
[11] = clinical DILI classification, ref Xu et al. (2008)
[12] = clinical hepatotoxicity classification, ref O'Brien et al. (2003)
[13] = clinical hepatotoxicity classification, ref Sakatis et al. (2012)
[14] = reported pattern of liver damage, Supplementary Table 2, ref literature
[15] = PHH 2D sandwich cultures, 100x Cmax, ref Xu 2008
[16] = PHH hanging-drop spheroids, 100x Cmax, ref Proctor 2017
[17] = ref Chen et al., 2011, Xu et al.

SMILES | Chemically defined spheroids (this study) 20x [1] | FDA (0-8) (clinical DILI in man; [7]) | DILI in vivo (clinical DILI in man; [8]) | Classified as (clinical DILI in man; [9]) | DILI in vivo (clinical DILI in man; [10]) | Xu et al. (2008) (clinical DILI in man; [11]) | Type of DILI (clinical DILI in man; [14]) | Cmax [2] [nM] | Extent of hepatic metabolism [3] | 2Dsw (Xu 2008) 100x (PHH 2D sandwich cultures; [15]) | Hanging-drop spheroids (Proctor 2017) 100x [4, 16] | Classified as (clinical DILI in man; in vivo) | Clinical DILI class (panel heading of Figure 4) (clinical DILI in man; in vivo) | DILI in vivo (clinical DILI in man; in vivo) | FDA (0-8) (clinical DILI in man; in vivo) | Sakatis et al. (2012) (clinical DILI in man; in vivo) | Type of DILI (clinical DILI in man; in vivo) | Xu et al. (2008) (clinical DILI in man; in vivo) | other results
Cc1cn([C@H]2C=C[C@@H](CO)O2)c(=O)[nH]c1=O [Stavudine] | Negative | 8 | POS | POS | POS | Positive | Cholestatic injury or Mixed hepatitis | 3460 | Minimal | Negative | Negative |  |  |  |  |  |  |  | Suzuki et al. (2010) (clinical DILI in man; [5]): 2; FDA (Severity) (clinical DILI in man; [6]): most DILI concern; O'Brien et al. (2003) (clinical DILI in man; [12]): Severely; Sakatis et al. (2012) (clinical DILI in man; [13]): Hepatotoxic
CC(C)(C)NCC(O)COc1cccc2c1CC(O)C(O)C2 (centres unmarked) [Nadolol] | Negative | 3 | NEG | NEG | NEG | Negative | Non-hepatotoxic |  | Minimal | Negative | Negative |  |  |  |  |  |  |  | 
CN(Cc1cnc2nc(N)nc(N)c2n1)c1ccc(C(=O)N[C@@H](CCC(=O)O)C(=O)O)cc1 [Methotrexate] | Positive | 3 | POS | POS | POS | Positive | Hepatocellular injury |  | Moderate | Negative | Negative |  |  |  |  |  |  |  | hepatotoxicity evaluation in CD-spheroids [1]: revealed the DILI liability; hepatotoxicity evaluation in CD-spheroids ([1]; human, 14 days): clearly detected already at 1× cmax exposure levels; Guo et al. (2005) (clinical DILI in man; DILI classification score, ref Guo et al. (2005)): 3; Suzuki et al. (2010) (clinical DILI in man; [5]): 1; O'Brien et al. (2003) (clinical DILI in man; [12]): Severely; Sakatis et al. (2012) (clinical DILI in man; [13]): Hepatotoxic; hepatotoxicity classification in hanging-drop PHH spheroids [4]: previously missed
CCOC(=O)c1ncn2c1CN(C)C(=O)c1cc(F)ccc1-2 [Flumazenil] | Negative | 0 | NEG | NEG | NEG | Negative | Non-hepatotoxic | 1120 | Extensive | Negative | Negative |  |  |  |  |  |  |  | O'Brien et al. (2003) (clinical DILI in man; [12]): Non-toxic
O=C1CN(/N=C/c2ccc([N+](=O)[O-])o2)C(=O)N1 [Nitrofurantoin] |  |  |  |  |  |  |  | 21000 | Minimal |  | Positive | POS | Severe DILI | POS | 8 | Hepatotoxic | Hepatocellular injury or Autoimmune hepatitis |  | FDA (Severity) (clinical DILI in man; in vivo): most DILI concern; Guo et al. (2005) (clinical DILI in man; in vivo): 3; O'Brien et al. (2003) (clinical DILI in man; in vivo): Severely; Suzuki et al. (2010) (clinical DILI in man; in vivo): 2; association with idiopathic autoimmune hepatitis (clinical DILI in man; in vivo): associated with cases of idiopathic autoimmune hepatitis
CN(C)CCCN1c2ccccc2Sc2ccc(Cl)cc21 [Chlorpromazine] | Positive |  |  |  |  |  |  | 840 | Extensive | Positive | Positive | POS | High DILI concern | POS | 2 | Hepatotoxic | Cholestatic injury or Mixed hepatitis | Positive | Guo et al. (2005) (clinical DILI in man; in vivo): 3; O'Brien et al. (2003) (clinical DILI in man; in vivo): Moderately; Suzuki et al. (2010) (clinical DILI in man; in vivo): 2
O=C1CN(/N=C/c2ccc(-c3ccc([N+](=O)[O-])cc3)o2)C(O)=N1 [Dantrolene] | Positive |  |  |  |  |  |  | 3690 | Extensive | Positive | Negative | POS | Severe DILI | POS | 8 | Hepatotoxic | Hepatocellular injury or Mixed hepatitis | Positive | hepatotoxicity evaluation in CD-spheroids [1]: revealed the DILI liability; FDA (Severity) (clinical DILI in man; in vivo): most DILI concern; Guo et al. (2005) (clinical DILI in man; in vivo): 3; O'Brien et al. (2003) (clinical DILI in man; in vivo): Severely; hepatotoxicity classification in hanging-drop PHH spheroids [4]: previously missed
CN(C)CCC(c1ccc(Cl)cc1)c1ccccn1 (centres unmarked) [Chlorpheniramine] |  |  |  |  |  |  |  |  | Extensive |  | Negative | NEG | DILI negative | NEG | 0 |  | Non-hepatotoxic | Positive | 
CC(C(=O)O)c1ccc2oc(-c3ccc(Cl)cc3)nc2c1 (centres unmarked) [Benoxaprofen] | Negative |  |  |  |  |  |  | 33100 | Moderate |  | Negative | POS | Severe DILI | POS | Withdrawn |  | Hepatocellular injury |  | FDA (Severity) (clinical DILI in man; in vivo): most DILI concern; Suzuki et al. (2010) (clinical DILI in man; in vivo): 3
CS(=O)(=O)Nc1ccc([N+](=O)[O-])cc1Oc1ccccc1 [Nimesulide] | Positive |  |  |  |  |  |  | 21100 |  |  |  | POS | Severe DILI | POS | Withdrawn | Hepatotoxic | Hepatocellular injury or Cholestatic injury | Positive | FDA (Severity) (clinical DILI in man; in vivo): most DILI concern; O'Brien et al. (2003) (clinical DILI in man; in vivo): Severely; Suzuki et al. (2010) (clinical DILI in man; in vivo): 3; 2Dsw (Xu 2008) 100x (PHH 2D sandwich cultures): Positive; Hanging-drop spheroids (Proctor 2017) 100x [4]: Positive
C#CCN(C)Cc1ccccc1 [Pargyline] | Negative |  | NEG | NEG | NEG |  | Non-hepatotoxic | 820 | Moderate |  | Negative |  |  |  |  |  |  |  | 
CN(CCOc1ccc(CC2SC(=O)NC2=O)cc1)c1ccccn1 (centres unmarked) [Rosiglitazone] |  | 3 | NEG | NEG | NEG | Negative | Non-hepatotoxic | 950 | Extensive | Negative | Positive |  |  |  |  |  |  |  | O'Brien et al. (2003) (clinical DILI in man; [12]): Non-toxic; Clinical DILI classification (Figure 5) (clinical DILI in man; [17]): DILI negative
COc1ccccc1Oc1c(NS(=O)(=O)c2ccc(C(C)(C)C)cc2)nc(-c2ncccn2)nc1OCCO [Bosentan] | Positive | 7 | POS | POS | POS |  | Hepatocellular injury or Mixed hepatitis |  | Extensive |  | Positive |  |  |  |  |  |  |  | hepatotoxicity evaluation in CD-spheroids [1]: clearly detected bosentan-induced liver injury; Suzuki et al. (2010) (clinical DILI in man; [5]): 1; FDA (Severity) (clinical DILI in man; [6]): most DILI concern; Clinical DILI classification (Figure 5) (clinical DILI in man; [17]): DILI positive
Cc1ccccc1C(OCCN(C)C)c1ccccc1 (centres unmarked) [Orphenadrine] |  |  |  |  |  |  |  | 490 | Extensive | Negative | Negative | NEG | DILI negative | NEG | 0 | non-hepatotixic | Non-hepatotoxic | Negative | 
